In general, IC50 refers to the concentration that gives 50% inhibition. A lower IC50 goes with inhibition by little substance.

The values below come from US8314234B2, “Bicyclic pyrimidine kinase inhibitors” (Janssen Pharmaceutica N.V., priority 2006, dated 2012).

One test deals with T1, CDK1 (Homo sapiens, UniProt P06493).
T1 construct: purchased New England Biolabs, Beverly, Mass; 6020; host or cells: insect cells
The test can be described thus: CDK-1 screening assay. It is filed as biochemical. The protocol:
(§1) 70 μL of the kinase reaction mixture was dispensed into the well of a streptavidin coated FlashPlate™ (Cat. #SMP103, NEN, Boston, Mass.).
(§2) Test compound stock in 100% DMSO (1 μL) was added to the wells resulting in a final concentration of 1% DMSO in the reaction with a 100 μL final reaction volume. Each enzyme was diluted in 50 mM Tris-HCl pH=8.0, 0.1% BSA and 30 μL was added to each well to initiate the reaction. The reaction was incubated for one hour at 30° C. At the end of the 1 hr incubation, the reaction was terminated by aspirating the mixture from the plate and washing the wells twice with PBS containing 100 mM EDTA. The biotinylated peptide substrate became immobilized on the Flashplate and the incorporation of ^33P-γ-ATP was measured by reading the plate on a scintillation counter. Inhibition of the enzymatic activity was measured by observing a reduced amount of ^33P-γ-ATP incorporated into the immobilized peptide.
(§3) A maximum and minimum signal for the assay was determined on each plate. The percent inhibition of a test compound was calculated according to the formula: […]
(§4) The term “ND” means “not determined.”

The target in a further test is VEGFR2 (Rattus norvegicus, UniProt O08775). The test can be described thus: VEGFR2 screening assay. It is filed as biochemical. The method, then:
A kinase reaction mixture was prepared containing 50 mM Tris-HCl pH=8, 10 mM MgCl2, 0.1 mM […], 1 mM DTT, 10 μM ATP, 0.025 μM biotinylated histone-H1 peptide substrate and 0.2 μCuries per well ^33P-γ-ATP (2000-3000 Ci/mmol). 70 μL of the kinase reaction mixture was dispensed into the well of a streptavidin coated FlashPlate™ (Cat. #SMP103, NEN, Boston, Mass.).
as §2
The VEGF-R2 enzyme is a fusion protein containing a polyhistidine tag at the N terminus followed by amino acids 786 to 1343 of the rat VEGF-R2 kinase domain (Accession number U93306). The assay used 150 ng of the N-terminal biotinylated peptide biotin-[…]-amide SEQ ID NO: 2) (VEGF-R2) per well.
as §3
For a series of test concentrations, the IC50 was derived by graphing percent inhibition against the log of the concentrations tested for a given compound with results shown in Table 2. For those compounds without an IC50, the inhibition values in percent are shown at a test concentration of 2 μM. The term “ND” means “not determined.”

The next test has as its target T2, EGFR (Homo sapiens, UniProt P00533).
T2 construct: intracellular portion of EGFR started at nucleotide 2189 (corresponding to amino acid 667) and ended at the termination codon; made in house; host or cells: Sf9 insect cells (baculovirus)
The test can be described thus: EGFR Kinase Assay. The following applies: test concentration of 2 μM. Format: biochemical. The text has this:
The EGFR kinase used was a fusion of Glutathione-S-Transferase (GST) and a PCR amplified intracellular portion of EGFR (NM_005228). The intracellular portion of EGFR started at nucleotide 2189 (corresponding to amino acid 667) and ended at the termination codon. The portion was PCR amplified with primers that added the lambda attB sequences to each end, recombined into an entry vector, then into a GST destination vector (as described in Gateway Technologies Manual by Invitrogen Corporation, Carlsbad, Calif.).
The destination vector was recombined in the DH10BAC strain of bacteria to produce a bacmid. The bacmid was transfected into Sf9 cells and the supernatant containing the baculovirus was collected. The GSTEGFR protein was purified using large cultures of Sf9 cells infected with stock virus. After an appropriate period of time, the cells were collected and lysed. The GSTEGFR was then purified from the lysate on Glutathione-Sepharose columns (as described by Amersham Biosciences, Buckinghamshire, United Kingdom).
The EGFR substrate was prepared by biotinylating polyGluTyr (128 mg) (Sigma, St. Louis, Mo.) in a 1×PBS buffer incubated together with a 12-fold molar excess of Sulfo-NHS-LC-Biotin on ice for at least 2 hrs. The free biotin was separated from the biotinylated polyGluTyr on a gel filtration column.
A mixture of a 10× kinase buffer (500 mM Tris at pH 8.0, 100 mM Magnesium Chloride and 1 mM Sodium Vanadate), DTT (1 mM final from 500 mM stock), ATP (5 μM final from 10 mM stock), biotinylated polyGluTyr (10 μg/μL stock), γ-^33P ATP (10 μCi/μL stock) and water was added to each well (90 μL/well) of a Streptavidin Flashplate (Perkin Elmer, Wellesley, Mass.).
Test compound in 100% DMSO (2 μL) was added to the appropriate wells. Diluted GSTEGFR (1:300 dilution in 50 mM Tris at pH 8.0 and 0.1% bovine serum albumin) (10 μL) was added to the wells to initiate the reactions.
The plates were incubated at 30° C. for 1 hr with shaking. The reacted contents were removed and the plates were sequentially washed three times with a 1×PBS stop buffer (300 μL without Magnesium and Calcium) and 100 mM EDTA. After the final wash, the same stop buffer (200 μL) was added to the wells. The plates were then sealed and read on the TopCount scintillation counter.
Test compounds were assayed in triplicate at 16 concentrations at half-log dilutions starting at 200 uM. A maximum and minimum signal for the assay was determined on each plate. The percent inhibition of a test compound was calculated according to the formula
For a series of test concentrations, the IC50 was derived by graphing percent inhibition against the log of the concentrations tested for a given compound. The percent inhibition results are shown in Table 1 at a test concentration of 2 μM. For those compounds with an IC50, the IC50 value is shown in parentheses.

A further test addresses T3, CDK2 (Homo sapiens, UniProt P24941).
T3 construct: purchased Upstate Biotech, Lake Placid, N.Y
The test can be described thus: CDK-2 screening assay. It is filed as biochemical. The method, then:
as §1, §2
The CDK2 enzyme in complex with cyclin A is commercially available (Upstate Biotech, Lake Placid, N.Y.).
as §3, §4

For the next test, the system named is A375 malignant melanoma. The test can be described thus: Cell Proliferation Inhibition Assay (14C-thymidine incorporation), A375. Format: cell-based. The following applies: Homo sapiens, A-375. The text has this:
(§5) The ability of a test compound to inhibit unregulated cell proliferation may be determined by measuring incorporation of ^14C-labelled thymidine into newly synthesized DNA within cell lines derived from carcinomas originating from several tissues. Accordingly, the anti-proliferative effect of a compound on cells with a variety of phenotypes may be determined.
(§6) Carcinoma cell lines include those such as HeLa cervical adenocarcinoma (American Type Culture Collection (ATCC), Virginia, Cat. #CCL-2), A375 malignant melanoma (ATCC CRL-1619), SK-OV-3 ovarian adenocarcinoma (ATCC HTB-77), HCT-116 colon carcinoma (CCL-247), PC-3 prostate adenocarcinoma (ATCC CRL-1435), and MDA-MB-231 (Xenogen Corp.)
(§7) The carcinoma cells are trypsinized and counted. The cells (3000-8000 count) are added to each well of a 96-well CytoStar tissue culture treated scintillating microplate (Amersham #RPNQ0160) in complete medium (100 μL) and the plate is then incubated in complete medium for 24 hrs at 37° C. in an inert atmosphere containing 5% CO2. Test compound (1 μL) in 100% DMSO is added to the plate test-wells with DMSO only added to control-wells. The plate is incubated in complete medium for a second 24 hr period at 37° C. in an atmosphere containing 5% CO2.
(§8) An aliquot of a solution of Methyl ^14C-thymidine (56 mC/mmol) (NEN #NEC568 or Amersham #CFA532) and complete medium (20 uL to provide 0.2 μCi/well) is then added to each well and the plate is incubated for a third 24 hr period at 37° C. in an atmosphere containing 5% CO2. The plate contents are then discarded, the plate is washed twice with PBS (200 μL) and then PBS (200 μL) is added to each well. The plate is sealed and the degree of methyl ^14C-thymidine incorporation is quantified on a Packard Top Count.
A general note: Incorporation of labelled thymidine or its analogues reports DNA synthesis.

The test system of test [1] is HeLa cervical adenocarcinoma. The test can be described thus: Cell Proliferation Inhibition Assay (14C-thymidine incorporation), HeLa. The following applies: Homo sapiens. It is filed as cell-based.
From the text: as §5, §6, §7, §8

In a further test the test system is HCT-116 colon carcinoma. The test can be described thus: Cell Proliferation Inhibition Assay (14C-thymidine incorporation), HCT-116. Format: cell-based. The following applies: Homo sapiens.
From the text: as §5, §6, §7, §8

T1 sequence (P06493 whole entry): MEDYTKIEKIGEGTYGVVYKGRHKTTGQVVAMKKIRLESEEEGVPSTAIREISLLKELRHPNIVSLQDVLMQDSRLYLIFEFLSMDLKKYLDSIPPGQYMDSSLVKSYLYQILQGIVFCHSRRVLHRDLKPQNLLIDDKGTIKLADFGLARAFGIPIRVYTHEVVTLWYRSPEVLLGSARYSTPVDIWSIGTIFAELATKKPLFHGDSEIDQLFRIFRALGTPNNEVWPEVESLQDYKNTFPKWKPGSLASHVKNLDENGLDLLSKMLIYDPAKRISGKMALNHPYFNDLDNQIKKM
T1 sequence (P14635 whole entry partner): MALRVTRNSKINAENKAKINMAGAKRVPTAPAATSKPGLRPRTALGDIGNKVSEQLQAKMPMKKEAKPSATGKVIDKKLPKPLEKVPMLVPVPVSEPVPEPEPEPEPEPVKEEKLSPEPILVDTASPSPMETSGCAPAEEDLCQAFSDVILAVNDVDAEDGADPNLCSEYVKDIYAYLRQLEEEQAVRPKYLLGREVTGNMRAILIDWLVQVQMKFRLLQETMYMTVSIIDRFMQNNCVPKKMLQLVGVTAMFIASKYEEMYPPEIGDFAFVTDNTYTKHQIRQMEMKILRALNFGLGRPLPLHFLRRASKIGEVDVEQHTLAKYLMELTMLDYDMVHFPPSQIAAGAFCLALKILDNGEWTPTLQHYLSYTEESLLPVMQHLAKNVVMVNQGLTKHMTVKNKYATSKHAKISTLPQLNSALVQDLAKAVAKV
Sequence of VEGFR2 (O08775 786-1343): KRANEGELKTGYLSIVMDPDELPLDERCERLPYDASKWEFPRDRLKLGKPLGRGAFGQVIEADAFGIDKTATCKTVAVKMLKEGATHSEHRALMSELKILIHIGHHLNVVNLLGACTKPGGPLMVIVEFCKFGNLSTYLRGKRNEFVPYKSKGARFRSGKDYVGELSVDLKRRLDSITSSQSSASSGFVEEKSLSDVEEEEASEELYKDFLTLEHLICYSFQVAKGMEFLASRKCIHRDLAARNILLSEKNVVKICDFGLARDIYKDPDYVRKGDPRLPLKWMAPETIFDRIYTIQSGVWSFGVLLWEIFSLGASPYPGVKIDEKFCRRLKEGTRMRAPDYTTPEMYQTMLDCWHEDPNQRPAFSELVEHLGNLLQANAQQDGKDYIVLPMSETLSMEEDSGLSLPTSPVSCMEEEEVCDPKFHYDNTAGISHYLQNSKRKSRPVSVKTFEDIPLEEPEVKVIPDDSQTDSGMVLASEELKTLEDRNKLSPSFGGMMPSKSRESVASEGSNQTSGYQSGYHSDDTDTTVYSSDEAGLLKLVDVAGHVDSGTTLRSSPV

Take “4-[6-(1H-indazol-5-ylamino)-1H-pyrazolo[3,4-d]pyrimidin-4-ylamino]-benzenesulfonamide [Cpd 4]”: the IC50 at CDK1 is 0.527 µM; against VEGFR2, 1.15 µM; at CDK2, 0.15 µM. Moreover, at EGFR, the “EGFR Inhibition (%)” value is reported as 65%.
Regarding `NS(=O)(=O)c1ccc(Nc2nc(Nc3ccc(S(N)(=O)=O)cc3)c3cn[nH]c3n2)cc1` [Cpd 1, N^4,N^6-bis-[4-(amino-sulfonyl)-phenyl]-1H-pyrazolo[3,4-d]pyrimidine-4,6-diamine], the 50% inhibitory concentration (IC50) stood at 100 µM in the test on A375 malignant melanoma; 0.132 µM against CDK1; 100 µM in test [1]; 5 µM on VEGFR2; 0.021 µM against CDK2; 4.9 µM in the test with HCT-116 colon carcinoma.
With `NS(=O)(=O)c1ccc(Nc2nc(NCc3ccccc3)c3cn[nH]c3n2)cc1` [Cpd 2, 4-(4-benzylamino-1H-pyrazolo[3,4-d]pyrimidin-6-ylamino)-benzenesulfonamide], the figures for the IC50 against CDK1, against VEGFR2 and against CDK2 were 7.16 µM, 20 µM and 1.6 µM, respectively.
As for `O=S(=O)(NCCO)c1ccc(Nc2nc(Nc3ccc4[nH]ncc4c3)c3cn[nH]c3n2)cc1` [Cpd 11, N-(2-hydroxy-ethyl)-4-[4-(1H-indazol-5-ylamino)-1H-pyrazolo[3,4-d]pyrimidin-6-ylamino]-benzenesulfonamide], the IC50 with A375 malignant melanoma is 100 µM; on CDK1, 0.102 µM; in test [1] it was 100 µM; against VEGFR2 it was 1 µM; against CDK2, 0.139 µM; in the test with HCT-116 colon carcinoma, 100 µM.
`CC(C)C(CO)Nc1nc(Nc2ccc(S(=O)(=O)NCCO)cc2)nc2[nH]ncc12` (stereo not drawn) [Cpd 14, N-(2-hydroxy-ethyl)-4-[4-(1-hydroxymethyl-2-methyl-propylamino)-1H-pyrazolo[3,4-d]pyrimidin-6-ylamino]-benzenesulfonamide]: the IC50 in the test with A375 malignant melanoma amounted to 100 µM; at CDK1, 12 µM; in test [1], 100 µM; against VEGFR2, 75 µM; at CDK2, 3.29 µM; with HCT-116 colon carcinoma it was 15 µM.
For the compound `O=S(=O)(NCCO)c1ccc(Nc2nc(Nc3ccc4[nH]ncc4c3)c3cnoc3n2)cc1` [Cpd 15, N-(2-hydroxy-ethyl)-4-[4-(1H-indazol-5-ylamino)-isoxazolo[5,4-d]pyrimidin-6-ylamino]-benzenesulfonamide], the IC50 with A375 malignant melanoma was 100 µM; on CDK1 it was 1 µM; in test [1] it was 100 µM; at VEGFR2 it was 1 µM; against CDK2 it was 0.18 µM; in the test with HCT-116 colon carcinoma it was 15 µM.
Consider `c1nc2ccc(Nc3nc(Nc4ccc5ncsc5c4)c4cn[nH]c4n3)cc2s1` [Cpd 16, N^4,N^6-bis-benzothiazol-6-yl-1H-pyrazolo[3,4-d]pyrimidine-4,6-diamine], for which the IC50 in the test on A375 malignant melanoma was found to be 8.2 µM; on CDK1, 5 µM; in test [1], 13.3 µM; on VEGFR2 it was 0.989 µM; against CDK2, 1 µM; in the test with HCT-116 colon carcinoma, 8.6 µM.
On to `NS(=O)(=O)c1ccc(Nc2nc(OCC3CCCCC3)c3cn[nH]c3n2)cc1` [Cpd 23, 4-(4-cyclohexylmethoxy-1H-pyrazolo[3,4-d]pyrimidin-6-ylamino)-benzenesulfonamide], for which the IC50 in the test with A375 malignant melanoma is 11 µM; in test [1], 18.3 µM; against VEGFR2 it was more than 10 µM; in the test on HCT-116 colon carcinoma, 16.6 µM.
As to `c1cc(N2CCNCC2)ccc1Nc1nc(OCC2CCCCC2)c2cn[nH]c2n1` [Cpd 24, (4-cyclohexylmethoxy-1H-pyrazolo[3,4-d]pyrimidin-6-yl)-(4-piperazin-1-yl-phenyl)-amine], the IC50 on CDK1, against VEGFR2 and on CDK2 was more than 100 µM throughout.
In the case of `c1ccc(Nc2nc(OCC3CCCCC3)c3cn[nH]c3n2)cc1` [Cpd 25, (4-cyclohexylmethoxy-1H-pyrazolo[3,4-d]pyrimidin-6-yl)-phenyl-amine], the concentration for half-maximal inhibition (IC50) on CDK1 is more than 100 µM; against VEGFR2, more than 10 µM; at CDK2, more than 10 µM.
As for `O=S(=O)(NCCO)c1ccc(Nc2nc(OCC3CCCCC3)c3cn[nH]c3n2)cc1` [Cpd 26, 4-(4-cyclohexylmethoxy-1H-pyrazolo[3,4-d]pyrimidin-6-ylamino)-N-(2-hydroxy-ethyl)-benzenesulfonamide], the IC50 in the test with A375 malignant melanoma is 8.6 µM; against CDK1, 0.268 µM; in test [1] it was 4.6 µM; against VEGFR2, 2.32 µM; in the test on HCT-116 colon carcinoma, 5 µM.
For `O=S(=O)(NCCN1CCOCC1)c1ccc(Nc2nc(OCC3CCCCC3)c3cn[nH]c3n2)cc1` [Cpd 27, 4-(4-cyclohexylmethoxy-1H-pyrazolo[3,4-d]pyrimidin-6-ylamino)-N-(2-morpholin-4-yl-ethyl)-benzenesulfonamide] the same measures were 7.5 µM, 0.83 µM, 19.4 µM, 4.47 µM and 11.2 µM.
